From patent US9957253B2, “Triaminopyrimidine compounds useful for preventing or treating malaria” (MMV MEDICINES FOR MALARIA VENTURE, priority 2014, dated 2018)
Counter-ions that a name gives are not always drawn. Like-named read-outs stand apart in the source and are kept apart here.

Legend:
[1] = system: chloroquine-resistant K1 strain of P. falciparum; test: In vitro antiplasmodial activity (SYBR I), K1 strain; type: cell-based, Plasmodium falciparum
Description: (§1) Measuring In Vitro Antiplasmodial Activity
(§2) The test samples were tested in duplicate on two separate occasions against chloroquine sensitive NF54 (MRA-1000, MR4, ATCC, Manassas, Va.) and chloroquine-resistant K1 strains of P. falciparum. A modified method of Trager and Jensen was employed to maintain continuous in vitro cultures of asexual blood stages of P. falciparum (Trageret al., 1976, Science, 193, 673-675). Quantitative assessment of antiplasmodial activity in vitro was determined using the SYBR I method as described earlier (Johnson et al., 2007, Antimicrob. Agents Chemother., 51, 1926-1933).
(§3) The percent inhibition with respect to the drug-free control was plotted against the logarithm of drug concentration. The growth inhibition curves were fitted by nonlinear regression using the sigmoidal dose-response (variable slope) formula to yield the concentration-response curves. […] Chloroquine diphosphate (CQ) (Sigma), artesunate (Sigma), and pyrimethamine were used as reference drugs in all experiments.

[2] = system: chloroquine sensitive NF54 strain of P. falciparum; test: In vitro antiplasmodial activity (SYBR I), NF54 strain; type: cell-based, Plasmodium falciparum
Description: as §1, §2, §3

[3] = system: P. falciparum field isolates; test: Ex vivo drug susceptibility (schizont maturation) of P. falciparum field isolates; type: cell-based; conditions: Plasmodium falciparum, read-out: P. falciparum IC50
Description: (§4) Further, compounds of the invention (Examples 2 and 13) were also tested against field isolates of falciparum and vivax malaria, along with three control antimalarials as described in the protocol below.
(§5) Ex Vivo Activity of Examples 2 and 13 Against Drug Resistant P. falciparum and P. Vivax Field Isolates
(§6) Standard antimalarial drugs chloroquine (CQ), amodiaquine (AQ), piperaquine (PIP), mefloquine (MFQ), and artesunate (AS) and compounds of the invention were prepared as 1 mg/mL stock solutions in H2O or dimethyl sulfoxide (DMSO) according to the manufacturers' instructions. Drug plates were pre-dosed by diluting the compounds in 50% Methanol followed by lyophilisation and stored at 4° C.
(§7) Plasmodium isolates were collected from patients attending malaria clinics in Timika (Papua, Indonesia), a region endemic for multi-drug-resistant strains of P. vivax and P. falciparum. Patients with symptomatic malaria presenting to an outpatient facility were recruited into the study if singly infected with P. falciparum or P. vivax, with a parasitaemia of between 2,000 μl-1 and 80,000 μl-1, and the majority (>80%) of parasites at ring stage of development. Venous blood (5 mL) was collected by venipuncture and after removal of host white blood cells by using cellulose (Sigma-Aldrich, Australia) filtration, packed infected red blood cells (iRBCs) were used for the ex vivo drug susceptibility assay.
(§8) Drug susceptibility of P. vivax and P. falciparum isolates was measured using a protocol modified from the WHO microtest as described previously (Marfurt et al., 2011, Antimicrob Agents Chemother., 55(9):4461). Two hundred μL of a 2% haematocrit Blood Media Mixture (BMM), consisting of RPMI 1640 medium plus 10% AB+ human serum (P. falciparum) or McCoy's 5 A medium plus 20% AB+ human serum (P. vivax), was added to each well of pre-dosed drug plates containing 11 serial concentrations (2-fold dilutions) of the antimalarials (maximum concentration shown in brackets) CQ (2,992 nM), AQ (158 nM), PIP (1,029 nM), MFQ (338 nM), AS (49 nM), and a compound of the invention (2,146 nM). A candle jar was used to mature the parasites at 37.0° C. for 35-56 hours.
(§9) Thick blood films made from each well were stained with 5% Giemsa solution for 30 minutes and examined microscopically. The number of schizonts per 200 asexual stage parasites was determined for each drug concentration and normalised to the control well. The dose-response data were analysed using nonlinear regression analysis (WinNonLn 4.1, Pharsight Corporation) and the IC50 value derived using an inhibitory sigmoid Emax model. […] Drug plate quality was assured by running schizont maturation assays (two independent experiments) with the chloroquine-resistant strain K1 and the chloroquine-sensitive strain FC27.
(§10) For microscopy slide reading QC, two randomly selected drugs per isolate were read by a second microscopist. […] If necessary, discrepant results were resolved by a third reading by an expert microscopist.

[4] = system: P. vivax field isolates; test: Ex vivo drug susceptibility (schizont maturation) of P. vivax field isolates; type: cell-based; conditions: Plasmodium vivax, read-out: P. vivax IC50
Description: as §4, §5, §6, §7, §8, §9, §10

[5] = Identification of metabolites of Example 13, mouse liver microsomes or hepatocytes; type: in vitro ADME; conditions: metabolite of Example 13
Description: (§11) Identification of In Vivo Metabolites
(§12) Metabolites of Example 13 were identified both in vitro and in vivo using the following models: • In vitro: The compound of Example 13 was incubated with human (HLM) or rat (RLM) liver microsomes (1 mg/ml protein concentration in 100 mM phosphate buffer, pH 7.4) at a final concentration of 10 μM in the presence of 2 mM NADPH. The reactive intermediates were trapped by including 2 mM glutathione (GSH) or N-acetyl cysteine (NAC) in the reaction mix. • In vivo in bile duct cannulated rats: Example 13 was administered intravenously (IV) as a bolus through the jugular vein at a dose of 2 mg/kg or 4 mg/kg of body weight for control (n=3) or BDC rats (n=2), respectively. Blood samples were collected at 0.083, 0.25, 0.5, 1, 2, 4, 6, 8 and 24 h through the carotid artery, bile samples were collected at 0-2 h, 2-4 h, 4-6 h, 6-8 h and 8-24 h intervals and urine samples were collected at 0-8 h and 8-24 h intervals. The bile and urine samples were analyzed for the presence of parent and metabolites and blood samples were analyzed for the presence of parent.

[6] = Identification of metabolites of Example 13, rat liver microsomes or hepatocytes; type: in vitro ADME; conditions: metabolite of Example 13
Description: as §11, §12

[7] = Identification of metabolites of Example 13, human liver microsomes or hepatocytes; type: in vitro ADME; conditions: metabolite of Example 13
Description: as §11, §12

[8] = Plasmodium falciparum, K1, read-out: Pf IC50—K1
[9] = Plasmodium falciparum, NF54, read-out: Pf IC50—NF54
[10] = Plasmodium falciparum, K1 strain, chloroquine-resistant, read-out: Pf IC50—K1
[11] = Plasmodium falciparum, NF54 strain, chloroquine sensitive, read-out: Pf IC50—NF54

Compound: CCc1cc(Nc2ncc(N3CCNC(C)C3)c(Nc3cc(C)n(C)n3)n2)nc(C)c1F (stereo in doubt) [Example 8, (R)—N4-(1,5-dimethyl-1H-pyrazol-3-yl)-N2-(4-ethyl-5-fluoro-6-methylpyridin-2-yl)-5-(3-methylpiperazin-1-yl)pyrimidine-2,4-diamine dihydrochloride]
- IC50 [1, 8]: 44 nM
- IC50 [2, 9]: 35 nM

Compound: C[C@H]1[C@H](OC(=O)CCC(=O)O)O[C@@H]2O[C@@]3(C)CC[C@H]4[C@H](C)CC[C@@H]1[C@@]24OO3 [Artesunate, artesunate]
- IC50 [3]: 15.1 nM
- IC50 [4]: 4.79 nM

Compound: CCN(CC)CCCC(C)Nc1ccnc2cc(Cl)ccc12 (stereo not drawn) [Chloroquine, chloroquine, reference compound]
- IC50 [3]: 60.8 nM
- IC50 [1, 8]: > 150 nM
- IC50 [4]: 40.2 nM
- IC50 [2, 9]: 11 nM

Compound: Cc1nc(Nc2ncc(N3CCN(C)CC3)c(Nc3cn(C)nn3)n2)cc(C2CC2)c1F [Example 1, N2-(4-cyclopropyl-5-fluoro-6-methylpyridin-2-yl)-N4-(1-methyl-1H-1,2,3-triazol-4-yl)-5-(4-methylpiperazin-1-yl)pyrimidine-2,4-diamine]
- IC50 [1, 10]: 24 nM
- IC50 [2, 11]: 15 nM

Compound: Cc1nc(Nc2ncc(N3CCN[C@H](C)C3)c(Nc3cc(C)n(C)n3)n2)cc(C2CC2)c1F [Example 2, (R)—N2-(4-cyclopropyl-5-fluoro-6-methylpyridin-2-yl)-N4-(1,5-dimethyl-1H-pyrazol-3-yl)-5-(3-methylpiperazin-1-yl)pyrimidine-2,4-diamine dihydrochloride]
- Presence of proposed metabolite (N-demethylation) in liver microsomes or hepatocytes [5]: ✓
- Presence of proposed metabolite (N-demethylation) in liver microsomes or hepatocytes [6]: ✓
- IC50 [3]: 63.6 nM
- IC50 [1, 8]: 19 nM
- Presence of proposed metabolite (N-demethylation) in liver microsomes or hepatocytes [7]: ✓
- IC50 [4]: 81 nM
- IC50 [2, 9]: 14 nM

Compound: CCn1nc(Nc2nc(Nc3cc(C4CC4)c(F)c(C)n3)ncc2N2CCN[C@H](C)C2)cc1C [Example 3, (R)—N2-(4-cyclopropyl-5-fluoro-6-methylpyridin-2-yl)-N4-(1-ethyl-5-methyl-1H-pyrazol-3-yl)-5-(3-methylpiperazin-1-yl)pyrimidine-2,4-diamine dihydrochloride]
- IC50 [1, 8]: 14 nM
- IC50 [2, 9]: 17 nM

Compound: Cc1nc(Nc2ncc(N3CCN[C@H](C)C3)c(Nc3cn(C)nn3)n2)cc(C2CC2)c1F [Example 4, (R)—N2-(4-cyclopropyl-5-fluoro-6-methylpyridin-2-yl)-N4-(1-methyl-1H-1,2,3-triazol-4-yl)-5-(3-methylpiperazin-1-yl)pyrimidine-2,4-diamine dihydrochloride]
- IC50 [1, 8]: 51 nM
- IC50 [2, 9]: 33 nM

Compound: Cc1nc(Nc2ncc(N3CCN[C@H](C)C3)c(Nc3cc(C)n(C)n3)n2)cc(C2CC2)c1Cl [Example 5, (R)—N2-(5-chloro-4-cyclopropyl-6-methylpyridin-2-yl)-N4-(1,5-dimethyl-1H-pyrazol-3-yl)-5-(3-methylpiperazin-1-yl)pyrimidine-2,4-diamine dihydrochloride]
- IC50 [1, 8]: 48 nM
- IC50 [2, 9]: 23 nM

Compound: Cc1nc(Nc2ncc(N3CCN[C@H](C)C3)c(Nc3cc(C)n(C)n3)n2)cc(C2CC2)c1C#N [Example 6, (R)-4-cyclopropyl-6-((4-((1,5-dimethyl-1H-pyrazol-3-yl)amino)-5-(3-methylpiperazin-1-yl)pyrimidin-2-yl)amino)-2-methylnicotinonitrile dihydrochloride]
- IC50 [1, 8]: 45 nM
- IC50 [2, 9]: 31 nM

Compound: Cc1nc(Nc2ncc(N3CCN[C@H](C)C3)c(Nc3cc(C)n(C)n3)n2)cc(C2CCC2)c1F [Example 9, (R)—N2-(4-cyclobutyl-5-fluoro-6-methylpyridin-2-yl)-N4-(1,5-dimethyl-1H-pyrazol-3-yl)-5-(3-methylpiperazin-1-yl)pyrimidine-2,4-diamine dihydrochloride]
- IC50 [1, 8]: 48 nM
- IC50 [2, 9]: 25 nM

Compound: Cc1nc(Nc2ncc(N3CCN[C@H](C)C3)c(Nc3cn(C)nn3)n2)cc(C2CC2)c1Cl [Example 11, (R)—N2-(5-chloro-4-cyclopropyl-6-methylpyridin-2-yl)-N4-(1-methyl-1H-1,2,3-triazol-4-yl)-5-(3-methylpiperazin-1-yl)pyrimidine-2,4-diamine dihydrochloride]
- IC50 [1, 8]: 50 nM
- IC50 [2, 9]: 30 nM

Compound: Cc1nc(Nc2ncc(N3CCN(C)[C@H](C)C3)c(Nc3cn(C)nn3)n2)cc(C2CC2)c1F [Example 14, (R)—N2-(4-cyclopropyl-5-fluoro-6-methylpyridin-2-yl)-5-(3,4-dimethylpiperazin-1-yl)-N4-(1-methyl-1H-1,2,3-triazol-4-yl)pyrimidine-2,4-diamine]
- IC50 [1, 10]: 69 nM
- IC50 [2, 11]: 33 nM

Compound: Cc1nc(Nc2ncc(N3CCN(C)[C@H](C)C3)c(Nc3cnn(C)n3)n2)cc(C2CC2)c1F [Example 15, (R)—N2-(4-cyclopropyl-5-fluoro-6-methylpyridin-2-yl)-5-(3,4-dimethylpiperazin-1-yl)-N4-(2-methyl-2H-1,2,3-triazol-4-yl)pyrimidine-2,4-diamine]
- IC50 [1, 10]: 37 nM
- IC50 [2, 11]: 17 nM

Compound: Clc1ccc2c(N3CCN(CCCN4CCN(c5ccnc6cc(Cl)ccc56)CC4)CC3)ccnc2c1 [Piperaquine, piperaquine]
- IC50 [3]: 16.9 nM
- IC50 [4]: 5.9 nM

Compound: CCc1nc(N)nc(N)c1-c1ccc(Cl)cc1 [Pyrimethamine, pyrimethamine, reference compound]
- IC50 [1, 10]: 7900 nM
- IC50 [2, 11]: 64 nM

Compound: (R)—N2-(5-Fluoro-4-cyclopropyl-6-methylpyridin-2-yl)-N4-(2-methyl-2H-1,2,3-triazol-4-yl)-5-(3-methylpiperazin-1-yl)pyrimidine-2,4-diamine dihydochloride [Example 12]
- IC50 ([1]; K1 strain, chloroquine-resistant, read-out: Pf IC50—K1): 82 nM
- IC50 ([2]; NF54 strain, chloroquine sensitive, read-out: Pf IC50—NF54): 39 nM
